Values after ≈ are worked out from the molar mass of the structure shown. Like-named read-outs stand apart in the source and are kept apart here.
How the values were obtained:
Fusarium 1827C = assay: MIC determination (NCCLS broth method); type: cell-based
Text: (§1) The in-vitro evaluation of the antifungal activity of the compounds can be performed by determining the minimum inhibitory concentration (MIC) as shown in Table 1 which is the concentration of the test compound in Rosewell Park Memorial Institute (RPMI) 1640 liquid medium buffered with 3-(Morpholino)propanesulphonic acid (MOPS) to pH 7, at which there is significant inhibition of the particular fungi. In practice the National Committee for Clinical Laboratory Standard (NCCLS) M27A document for Candida and Cryptococcus and M38P for Aspergillus was used to determine the MIC against yeast and filamentous fungi with suitable modifications for dermatophytes to other filamentous fungi. Three quality control strains were included each time the MIC were determined and readings recorded only when the Quality Control results fell into the acceptable range. After MIC results had been recorded, 100 μl from each of the well showing no growth was spread over Sabouraud Dextrose Agar (SDA) to determine the minimum fungicidal concentration (MFC) as shown in Table 2.

Fusarium 1050 = assay: MIC determination (NCCLS broth method); type: cell-based
Text: as §1

A flavus P3 - 1041 = assay: MIC determination (NCCLS broth method); type: cell-based
Text: as §1

Penicillium 3162 = assay: MIC determination (NCCLS broth method); type: cell-based
Text: as §1

Mucor (Ceylon) = assay: MIC determination (NCCLS broth method); type: cell-based
Text: as §1

A niger P1 - 1046 = assay: MIC determination (NCCLS broth method); type: cell-based
Text: as §1

C krusei 6258 = assay: MIC determination (NCCLS broth method); type: cell-based
Text: as §1

Penicillium H - 1048 = assay: MIC determination (NCCLS broth method); type: cell-based
Text: as §1

Fusarium 2960C = assay: MIC determination (NCCLS broth method); type: cell-based
Text: as §1

C parapsilosis 22019 = assay: MIC determination (NCCLS broth method); type: cell-based
Text: as §1

Penicillium I - 1049 = assay: MIC determination (NCCLS broth method); type: cell-based
Text: as §1

A flavus P2 - 1045 = assay: MIC determination (NCCLS broth method); type: cell-based
Text: as §1

A flavus E3 - 1044 = assay: MIC determination (NCCLS broth method); type: cell-based
Text: as §1

A flavus E2 - 1043 = assay: MIC determination (NCCLS broth method); type: cell-based
Text: as §1

Penicillium 2548 = assay: MIC determination (NCCLS broth method); type: cell-based
Text: as §1

C krusei 766.1 = assay: MIC determination (NCCLS broth method); type: cell-based
Text: as §1

Rhizopus (Ceylon) = assay: MIC determination (NCCLS broth method); type: cell-based
Text: as §1

Alternaria 1051 = assay: MIC determination (NCCLS broth method); type: cell-based
Text: as §1

Aspergillus fumigatous = assay: In vivo anti-fungal activity, ED50 in systemically infected mice; set-up: species or system Swiss albino mice; details: mice infected i.v. with Aspergillus fumigatous, dosing for five days
Experimental: The in-vivo evaluation of the compound can be carried out at a series of dose levels by oral or I. V. injection to mice which are inoculated I.V. with the minimum lethal dose of Candida albicans, Cryptococcus neoformans or Aspergillus fumigatus by the tail vein. Activity is based on the survival of a treated group of mice after the death of an untreated group of mice. For Aspergillus and Cryptococcus infections, target organs were cultured after treatment to document the number of mice cured of the infection for further assessment of activity.
Method: Briefly, Swiss albino mice weighing 20±2 G were injected intravenously (tail vein) with sufficient fungal cells to kill 100% of the untreated animals for Aspergillus fumigatous strain used. In all cases each group comprised of six mice. Five does levels, utilizing doubling dilution range, were employed per determination ranging from 25 to 1.56 mg/kg BW. Dosing was carried out for five days starting after 30 minutes of infection. […] Treated animals were monitored twice daily for 14 days post infection at which time the experiment was terminated and ED50 was calculated.

[1] = test system: Aspergillus fumigatus isolates; assay: Comparative in vitro MIC, isolate panel; type: cell-based
Text: as §1
(§2) A comparative in vitro and in vivo biologically activity data of the compound of our invention, 2-{[1R,2R]-2-(2,4-Difluorophenyl)-2-hydroxy-1-methyl-3-(1H-1,2,4-triazole-1-yl)propyl}-4-[(2′,2′,3′,3′-tetrafluoropropoxyphenyl)-3-(2H,4H)-1,2,4-thiotriazolone (Compound No. 3) with 2-[(1R,2R)-2-(2,4-difluorophenyl)-2-hydroxy-1-methyl-3-(1H-1,2,4-triazol-1-yl)propyl]-4-(2′,2′,3′,3′-tetraflouropropoxyphenyl)-3(2H,4H)-1,2,4-triazolone (TAK 187) and standard antifungal pharmaceuticals is given below: […]

Rhizoupus spp. isolates = assay: Comparative in vitro MIC, isolate panel; type: cell-based
Text: as §1, §2

All Filamentous isolates = assay: Comparative in vitro MIC, isolate panel; type: cell-based
Text: as §1, §2

All fungal pathogens = assay: Comparative in vitro MIC, isolate panel; type: cell-based
Text: as §1, §2

All Candida isolates = assay: Comparative in vitro MIC, isolate panel; type: cell-based
Text: as §1, §2

Fusarium spp. isolates = assay: Comparative in vitro MIC, isolate panel; type: cell-based
Text: as §1, §2

[2] = test system: Penicillium spp. isolates; assay: Comparative in vitro MIC, isolate panel; type: cell-based
Text: as §1, §2

Penicilliuim 2306 = assay: MIC determination (NCCLS broth method); type: cell-based, Penicillium
Text: as §1

T. rubrum = assay: Activity against dermatophytes; type: cell-based; set-up: unit not given here
Text: as §1, §2

T. mentagrophyte = assay: Activity against dermatophytes; type: cell-based; set-up: unit not given here
Text: as §1, §2

[3] = read-out: Minimum Inhibitory Concentration (MIC)

CCC(C)n1ncn(-c2ccc(N3CCN(c4ccc(OCC5COC(Cn6cncn6)(c6ccc(Cl)cc6Cl)O5)cc4)CC3)cc2)c1=O (stereo not drawn) [Itraconazole]
MIC (Fusarium 1827C; [3]): 128 µg/mL (≈ 181 µM)
MIC (Fusarium 1050; [3]): 64 µg/mL (≈ 90.7 µM)
MIC (A flavus P3 - 1041; [3]): 0.06 µg/mL (≈ 0.085 µM)
MIC (Penicillium 3162; [3]): 0.25 µg/mL (≈ 0.354 µM)
MIC (Mucor (Ceylon); [3]): 0.125 µg/mL (≈ 0.177 µM)
MIC (A niger P1 - 1046; [3]): 0.125 µg/mL (≈ 0.177 µM)
MIC (C krusei 6258; [3]): 0.25 µg/mL (≈ 0.354 µM)
MIC (Penicillium H - 1048; H1048, read-out: Minimum Inhibitory Concentration (MIC)): 16 µg/mL (≈ 22.7 µM)
MIC (Fusarium 2960C; [3]): 16 µg/mL (≈ 22.7 µM)
MIC (C parapsilosis 22019; [3]): 0.03 µg/mL (≈ 0.0425 µM)
MIC (Penicillium I - 1049; I1049, read-out: Minimum Inhibitory Concentration (MIC)): 16 µg/mL (≈ 22.7 µM)
MIC (A flavus P2 - 1045; [3]): 0.06 µg/mL (≈ 0.085 µM)
MIC (A flavus E3 - 1044; [3]): 0.03 µg/mL (≈ 0.0425 µM)
MIC (A flavus E2 - 1043; [3]): 0.03 µg/mL (≈ 0.0425 µM)
MIC (Penicillium 2548; [3]): 0.25 µg/mL (≈ 0.354 µM)
MIC (C krusei 766.1; [3]): 0.5 µg/mL (≈ 0.709 µM)
MIC (Rhizopus (Ceylon); [3]): 64 µg/mL (≈ 90.7 µM)
MIC (Alternaria 1051; [3]): 0.125 µg/mL (≈ 0.177 µM)
ED50 (Aspergillus fumigatous; Day 7 post infection): 8.84 mg/kg body weight
ED50 (Aspergillus fumigatous; Day 14 post infection): 21.02 mg/kg body weight
MIC [1]: 0.181 µg/mL (≈ 0.257 µM)
MIC50 ([1]; read-out: MIC50): 0.25 µg/mL (≈ 0.354 µM)
MIC90 ([1]; read-out: MIC90): 0.5 µg/mL (≈ 0.709 µM)
MIC (Rhizoupus spp. isolates): 32 µg/mL (≈ 45.3 µM)
MIC50 (Rhizoupus spp. isolates; read-out: MIC50): 16 µg/mL (≈ 22.7 µM)
MIC90 (Rhizoupus spp. isolates; read-out: MIC90): 64 µg/mL (≈ 90.7 µM)
MIC (All Filamentous isolates): 0.6 µg/mL (≈ 0.85 µM)
MIC50 (All Filamentous isolates; read-out: MIC50): 0.25 µg/mL (≈ 0.354 µM)
MIC90 (All Filamentous isolates; read-out: MIC90): 256 µg/mL (≈ 363 µM)
MIC (All fungal pathogens): 0.437 µg/mL (≈ 0.619 µM)
MIC50 (All fungal pathogens; read-out: MIC50): 0.19 µg/mL (≈ 0.269 µM)
MIC90 (All fungal pathogens; read-out: MIC90): 256 µg/mL (≈ 363 µM)
MIC (All Candida isolates): 0.1 µg/mL (≈ 0.142 µM)
MIC50 (All Candida isolates; read-out: MIC50): 0.25 µg/mL (≈ 0.354 µM)
MIC90 (All Candida isolates; read-out: MIC90): 0.5 µg/mL (≈ 0.709 µM)
MIC (Fusarium spp. isolates): 90.5 µg/mL (≈ 128 µM)
MIC50 (Fusarium spp. isolates; read-out: MIC50): 64 µg/mL (≈ 90.7 µM)
MIC90 (Fusarium spp. isolates; read-out: MIC90): 256 µg/mL (≈ 363 µM)
MIC [2]: 0.922 µg/mL (≈ 1.31 µM)
MIC50 ([2]; read-out: MIC50): 0.5 µg/mL (≈ 0.709 µM)
MIC90 ([2]; read-out: MIC90): 256 µg/mL (≈ 363 µM)
MIC (Penicilliuim 2306; Penicillium, read-out: Minimum Inhibitory Concentration (MIC)): 0.125 µg/mL (≈ 0.177 µM)
Activity against dermatophytes (T. rubrum): 0.03
Activity against dermatophytes (T. mentagrophyte): 0.125

C[C@@H]1[C@H](O)[C@@H](C)/C=C/C=C/C=C/C=C/C=C/C=C/C=C/[C@H](O[C@@H]2O[C@H](C)[C@@H](O)[C@H](N)[C@@H]2O)C[C@@H]2O[C@](O)(C[C@@H](O)C[C@@H](O)[C@H](O)CC[C@@H](O)C[C@@H](O)CC(=O)O[C@H]1C)C[C@H](O)[C@H]2C(=O)O [Amphotericin-B, Amphotericin B]
Minimum Inhibitory Concentration (MIC) (Fusarium 1827C): >128 µg/mL
Minimum Inhibitory Concentration (MIC) (Fusarium 1050): 0.5 µg/mL
Minimum Inhibitory Concentration (MIC) (A flavus P3 - 1041): 0.5 µg/mL
Minimum Inhibitory Concentration (MIC) (Penicillium 3162): 0.25 µg/mL
Minimum Inhibitory Concentration (MIC) (Mucor (Ceylon)): 0.06 µg/mL
Minimum Inhibitory Concentration (MIC) (A niger P1 - 1046): 0.25 µg/mL
Minimum Inhibitory Concentration (MIC) (C krusei 6258): 0.25 µg/mL
Minimum Inhibitory Concentration (MIC) (Penicillium H - 1048): 0.25 µg/mL
Minimum Inhibitory Concentration (MIC) (Fusarium 2960C): 0.5 µg/mL
Minimum Inhibitory Concentration (MIC) (C parapsilosis 22019): 0.25 µg/mL
Minimum Inhibitory Concentration (MIC) (Penicillium I - 1049): 0.25 µg/mL
Minimum Inhibitory Concentration (MIC) (A flavus P2 - 1045): 1 µg/mL
Minimum Inhibitory Concentration (MIC) (A flavus E3 - 1044): 1 µg/mL
Minimum Inhibitory Concentration (MIC) (A flavus E2 - 1043): 1 µg/mL
Minimum Inhibitory Concentration (MIC) (Penicillium 2548): 0.03 µg/mL
Minimum Inhibitory Concentration (MIC) (C krusei 766.1): 0.25 µg/mL
Minimum Inhibitory Concentration (MIC) (Rhizopus (Ceylon)): 64 µg/mL
Minimum Inhibitory Concentration (MIC) (Alternaria 1051): 1 µg/mL
MIC50 [1]: 0.25 µg/mL (≈ 0.271 µM)
MIC90 [1]: 0.5 µg/mL (≈ 0.541 µM)
MIC G.M. [1]: 0.27 µg/mL (≈ 0.292 µM)
MIC50 (Rhizoupus spp. isolates): 0.125 µg/mL (≈ 0.135 µM)
MIC90 (Rhizoupus spp. isolates): 0.25 µg/mL (≈ 0.271 µM)
MIC G.M. (Rhizoupus spp. isolates): 0.177 µg/mL (≈ 0.192 µM)
MIC50 (All Filamentous isolates): 0.25 µg/mL (≈ 0.271 µM)
MIC90 (All Filamentous isolates): 0.5 µg/mL (≈ 0.541 µM)
MIC G.M. (All Filamentous isolates): 0.22 µg/mL (≈ 0.238 µM)
MIC50 (All fungal pathogens): 0.25 µg/mL (≈ 0.271 µM)
MIC90 (All fungal pathogens): 0.5 µg/mL (≈ 0.541 µM)
MIC G.M. (All fungal pathogens): 0.21 µg/mL (≈ 0.227 µM)
MIC50 (All Candida isolates): 0.25 µg/mL (≈ 0.271 µM)
MIC90 (All Candida isolates): 0.25 µg/mL (≈ 0.271 µM)
MIC G.M. (All Candida isolates): 0.22 µg/mL (≈ 0.238 µM)
MIC50 (Fusarium spp. isolates): 0.5 µg/mL (≈ 0.541 µM)
MIC90 (Fusarium spp. isolates): 2 µg/mL (≈ 2.16 µM)
MIC G.M. (Fusarium spp. isolates): 0.841 µg/mL (≈ 0.91 µM)
MIC50 [2]: 0.25 µg/mL (≈ 0.271 µM)
MIC90 [2]: 0.25 µg/mL (≈ 0.271 µM)
MIC G.M. [2]: 0.144 µg/mL (≈ 0.156 µM)
Minimum Inhibitory Concentration (MIC) (Penicilliuim 2306): 0.25 µg/mL
